Assay results as given in ChEMBL document CHEMBL4828725 (Eur J Med Chem, 2021).

Columns and labels:
[1] = Inhibition of bovine liver beta-galactosidase using p-nitrophenyl glycoside as substrate assessed as release of p-nitrophenol measured by spectrometric assay; type: tissue-based, Bos taurus
[2] = Inhibition of porcine kidney alpha-trehalase using p-nitrophenyl glycoside as substrate assessed as release of p-nitrophenol measured by spectrometric assay; design: species or system Sus scrofa
[3] = biological target: T1, Tissue alpha-L-fucosidase (Bos taurus, UniProt Q2KIM0); test: Inhibition of bovine kidney alpha-L-fucosidase using p-nitrophenyl glycoside as substrate assessed as release of p-nitrophenol measured by spectrometric assay
T1 sequence (Q2KIM0 whole entry): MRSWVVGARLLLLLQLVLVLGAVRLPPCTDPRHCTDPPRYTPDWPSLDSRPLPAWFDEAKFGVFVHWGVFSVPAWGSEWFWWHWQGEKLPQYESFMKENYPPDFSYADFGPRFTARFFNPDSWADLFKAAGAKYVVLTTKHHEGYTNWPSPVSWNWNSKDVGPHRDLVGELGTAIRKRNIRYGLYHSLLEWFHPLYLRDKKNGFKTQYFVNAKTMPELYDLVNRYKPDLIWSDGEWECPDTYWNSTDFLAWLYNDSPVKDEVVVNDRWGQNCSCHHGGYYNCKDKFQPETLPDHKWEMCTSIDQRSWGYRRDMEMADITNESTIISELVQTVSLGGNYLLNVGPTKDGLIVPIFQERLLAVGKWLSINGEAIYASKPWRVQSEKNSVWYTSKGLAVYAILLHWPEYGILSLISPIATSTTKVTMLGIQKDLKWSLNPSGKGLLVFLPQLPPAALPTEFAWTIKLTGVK

Aspergillus niger = test: Inhibition of Aspergillus niger amyloglucosidase using p-nitrophenyl glycoside as substrate assessed as release of p-nitrophenol at 1000 uM measured by spectrometric assay relative to control
Helix pomatia = test: Inhibition of snail beta-mannosidase using p-nitrophenyl glycoside as substrate assessed as release of p-nitrophenol at 1000 uM measured by spectrometric assay relative to control
[4] = biological target: T2, Sucrase-isomaltase, intestinal (Rattus norvegicus, UniProt P23739); test: Inhibition of rat intestinal sucrase using p-nitrophenyl glycoside as substrate assessed as release of p-nitrophenol measured by spectrometric assay
Oryza sativa = test: Inhibition of rice alpha-glucosidase using p-nitrophenyl glycoside as substrate assessed as release of p-nitrophenol at 1000 uM measured by spectrometric assay
[5] = Inhibition of rat intestinal maltase using maltose as substrate assessed as release of D-glucose measured by spectrometric assay
[6] = Inhibition of bovine liver beta-glucosidase using p-nitrophenyl glycoside as substrate assessed as release of p-nitrophenol measured by spectrometric assay; design: species or system Bos taurus
[7] = Inhibition of almond beta-glucosidase using p-nitrophenyl glycoside as substrate assessed as release of p-nitrophenol measured by spectrometric assay; design: species or system Prunus dulcis
Rattus norvegicus = species on record: Rattus norvegicus; test: Inhibition of rat intestinal maltase using maltose as substrate assessed as release of D-glucose at 1000 uM measured by spectrometric assay
[8] = Inhibition of snail beta-mannosidase using p-nitrophenyl glycoside as substrate assessed as release of p-nitrophenol measured by spectrometric assay; design: species or system Helix pomatia
Penicillium decumbens = test: Inhibition of Penicillium decumbens alpha-L-rhamnosidase using p-nitrophenyl glycoside as substrate assessed as release of p-nitrophenol at 1000 uM measured by spectrometric assay relative to control
[9] = biological target: T3, Alpha-mannosidase (Canavalia ensiformis) (UniProt C0HJB3); test: Inhibition of jack bean alpha-mannosidase using p-nitrophenyl glycoside as substrate assessed as release of p-nitrophenol at 1000 uM measured by spectrometric assay relative to control
T3 sequence (whole entry): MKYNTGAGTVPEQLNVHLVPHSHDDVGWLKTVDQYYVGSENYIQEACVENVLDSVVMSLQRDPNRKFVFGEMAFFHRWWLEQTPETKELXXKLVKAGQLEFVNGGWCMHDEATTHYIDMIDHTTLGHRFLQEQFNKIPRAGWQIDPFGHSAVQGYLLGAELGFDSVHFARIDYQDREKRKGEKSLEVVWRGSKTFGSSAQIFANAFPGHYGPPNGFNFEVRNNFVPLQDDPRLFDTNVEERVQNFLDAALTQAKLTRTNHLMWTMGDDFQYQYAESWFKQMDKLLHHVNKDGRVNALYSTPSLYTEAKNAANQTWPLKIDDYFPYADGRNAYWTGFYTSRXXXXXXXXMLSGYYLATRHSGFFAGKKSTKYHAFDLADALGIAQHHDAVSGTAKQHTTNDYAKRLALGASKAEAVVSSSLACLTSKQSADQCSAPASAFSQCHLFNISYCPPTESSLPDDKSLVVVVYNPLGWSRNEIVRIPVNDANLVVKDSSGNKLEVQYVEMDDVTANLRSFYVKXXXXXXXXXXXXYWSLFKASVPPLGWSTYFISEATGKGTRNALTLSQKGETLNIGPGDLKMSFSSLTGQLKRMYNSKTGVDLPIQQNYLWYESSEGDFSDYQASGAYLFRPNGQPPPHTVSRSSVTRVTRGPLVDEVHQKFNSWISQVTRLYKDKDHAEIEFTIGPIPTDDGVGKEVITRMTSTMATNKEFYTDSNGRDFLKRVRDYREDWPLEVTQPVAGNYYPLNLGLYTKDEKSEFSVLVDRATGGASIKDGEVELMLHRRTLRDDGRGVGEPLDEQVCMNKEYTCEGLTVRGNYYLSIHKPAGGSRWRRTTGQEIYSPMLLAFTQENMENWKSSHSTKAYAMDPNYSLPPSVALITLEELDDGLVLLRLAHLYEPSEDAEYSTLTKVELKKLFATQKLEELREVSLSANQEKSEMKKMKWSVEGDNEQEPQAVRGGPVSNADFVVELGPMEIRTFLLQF

[10] = Inhibition of rice alpha-glucosidase using p-nitrophenyl glycoside as substrate assessed as release of p-nitrophenol measured by spectrometric assay; design: species or system Oryza sativa
[11] = Inhibition of Aspergillus niger amyloglucosidase using p-nitrophenyl glycoside as substrate assessed as release of p-nitrophenol measured by spectrometric assay
Alpha-galactosidase = Alpha-galactosidase (Coffea arabica, UniProt Q42656); test: Inhibition of coffee beans alpha-galactosidase using p-nitrophenyl glycoside as substrate assessed as release of p-nitrophenol measured by spectrometric assay
Sus scrofa = species on record: Sus scrofa; test: Inhibition of porcine kidney alpha-trehalase using p-nitrophenyl glycoside as substrate assessed as release of p-nitrophenol at 1000 uM measured by spectrometric assay relative to control
[12] = biological target: T4, Tissue alpha-L-fucosidase (Bos taurus) (UniProt Q2KIM0); test: Inhibition of bovine kidney alpha-L-fucosidase using p-nitrophenyl glycoside as substrate assessed as release of p-nitrophenol at 1000 uM measured by spectrometric assay relative to control; type: tissue-based
T4 sequence (whole entry): T1 sequence (Q2KIM0 whole entry)

[13] = Inhibition of jack bean alpha-mannosidase using p-nitrophenyl glycoside as substrate assessed as release of p-nitrophenol measured by spectrometric assay; design: species or system Canavalia ensiformis
[14] = biological target: Beta-glucuronidase (Escherichia coli (strain K12)) (UniProt P05804); test: Inhibition of Escherichia coli beta-glucuronidase using p-nitrophenyl glycoside as substrate assessed as release of p-nitrophenol at 1000 uM measured by spectrometric assay relative to control
[15] = biological target: Alpha-galactosidase (Coffea arabica) (UniProt Q42656); test: Inhibition of coffee beans alpha-galactosidase using p-nitrophenyl glycoside as substrate assessed as release of p-nitrophenol at 1000 uM measured by spectrometric assay relative to control
[16] = Inhibition of Penicillium decumbens alpha-L-rhamnosidase using p-nitrophenyl glycoside as substrate assessed as release of p-nitrophenol measured by spectrometric assay
Prunus dulcis = test: Inhibition of almond beta-glucosidase using p-nitrophenyl glycoside as substrate assessed as release of p-nitrophenol at 1000 uM measured by spectrometric assay relative to control
Beta-glucuronidase = Beta-glucuronidase (Escherichia coli (strain K12), UniProt P05804); test: Inhibition of Escherichia coli beta-glucuronidase using p-nitrophenyl glycoside as substrate assessed as release of p-nitrophenol measured by spectrometric assay
[17] = biological target: T2, Sucrase-isomaltase, intestinal; test: Inhibition of rat intestinal isomaltase using p-nitrophenyl glycoside as substrate assessed as release of p-nitrophenol measured by spectrometric assay
[18] = Inhibition of Agrobacterium sp beta-glucosidase using p-nitrophenyl beta-glucoside as substrate assessed as release of p-nitrophenol measured by plate reader assay
Bos taurus [19] = species on record: Bos taurus; test: Inhibition of bovine liver beta-galactosidase using p-nitrophenyl glycoside as substrate assessed as release of p-nitrophenol at 1000 uM measured by spectrometric assay relative to control
Bos taurus [20] = species on record: Bos taurus; test: Inhibition of bovine liver beta-glucosidase using p-nitrophenyl glycoside as substrate assessed as release of p-nitrophenol at 1000 uM measured by spectrometric assay relative to control; type: tissue-based

T2 sequence (P23739 1-1013 limits assumed): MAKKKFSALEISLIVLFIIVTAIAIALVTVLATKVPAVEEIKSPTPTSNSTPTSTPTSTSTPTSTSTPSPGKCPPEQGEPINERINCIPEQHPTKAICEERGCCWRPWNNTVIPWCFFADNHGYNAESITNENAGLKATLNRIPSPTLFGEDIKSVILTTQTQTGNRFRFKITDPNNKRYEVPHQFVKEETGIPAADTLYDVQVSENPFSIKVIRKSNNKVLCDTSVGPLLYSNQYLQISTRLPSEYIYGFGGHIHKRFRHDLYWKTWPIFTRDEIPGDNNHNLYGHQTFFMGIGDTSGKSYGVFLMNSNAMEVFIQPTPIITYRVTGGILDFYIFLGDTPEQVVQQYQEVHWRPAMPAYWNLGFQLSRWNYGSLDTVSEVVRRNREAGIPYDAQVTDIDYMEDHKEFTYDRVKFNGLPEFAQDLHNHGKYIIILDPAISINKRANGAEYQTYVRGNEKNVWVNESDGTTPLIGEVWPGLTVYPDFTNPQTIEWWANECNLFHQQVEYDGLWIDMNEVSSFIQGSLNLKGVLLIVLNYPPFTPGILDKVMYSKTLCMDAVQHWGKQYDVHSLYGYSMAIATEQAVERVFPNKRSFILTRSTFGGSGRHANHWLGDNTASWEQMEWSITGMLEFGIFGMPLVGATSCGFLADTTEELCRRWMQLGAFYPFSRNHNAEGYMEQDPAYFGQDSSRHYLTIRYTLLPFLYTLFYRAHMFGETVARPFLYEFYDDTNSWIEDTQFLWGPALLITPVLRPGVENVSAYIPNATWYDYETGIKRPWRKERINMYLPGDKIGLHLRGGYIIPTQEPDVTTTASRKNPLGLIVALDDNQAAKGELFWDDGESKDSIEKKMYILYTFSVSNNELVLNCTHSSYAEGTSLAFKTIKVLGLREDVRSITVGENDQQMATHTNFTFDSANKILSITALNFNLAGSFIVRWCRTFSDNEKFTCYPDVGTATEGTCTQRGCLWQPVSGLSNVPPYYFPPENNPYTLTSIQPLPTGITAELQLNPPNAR
T2 sequence (P23739 1014-1841 limits assumed): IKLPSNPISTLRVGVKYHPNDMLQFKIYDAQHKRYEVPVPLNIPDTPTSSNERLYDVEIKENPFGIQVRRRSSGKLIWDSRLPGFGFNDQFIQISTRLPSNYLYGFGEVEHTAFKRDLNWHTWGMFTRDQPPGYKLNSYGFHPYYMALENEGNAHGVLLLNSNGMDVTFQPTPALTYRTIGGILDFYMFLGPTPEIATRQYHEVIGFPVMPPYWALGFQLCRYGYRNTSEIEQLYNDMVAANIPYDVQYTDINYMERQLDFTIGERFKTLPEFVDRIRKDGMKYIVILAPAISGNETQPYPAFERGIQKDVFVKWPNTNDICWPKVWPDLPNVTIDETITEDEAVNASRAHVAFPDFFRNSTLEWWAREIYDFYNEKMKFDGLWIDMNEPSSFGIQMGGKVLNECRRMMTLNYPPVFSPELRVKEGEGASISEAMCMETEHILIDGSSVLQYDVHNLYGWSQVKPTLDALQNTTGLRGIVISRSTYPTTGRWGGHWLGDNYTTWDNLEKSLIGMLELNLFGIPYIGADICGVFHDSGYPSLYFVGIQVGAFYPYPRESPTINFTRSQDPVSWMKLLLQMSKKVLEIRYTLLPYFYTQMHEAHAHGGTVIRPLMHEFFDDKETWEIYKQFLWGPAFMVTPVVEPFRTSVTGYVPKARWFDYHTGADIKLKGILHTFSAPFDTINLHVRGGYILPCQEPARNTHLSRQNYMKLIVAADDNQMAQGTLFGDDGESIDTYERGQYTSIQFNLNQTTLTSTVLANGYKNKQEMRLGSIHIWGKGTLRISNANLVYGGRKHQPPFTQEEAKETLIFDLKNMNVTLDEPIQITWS
Chain of Alpha-galactosidase (Coffea arabica) (Q42656 16-378 limits assumed): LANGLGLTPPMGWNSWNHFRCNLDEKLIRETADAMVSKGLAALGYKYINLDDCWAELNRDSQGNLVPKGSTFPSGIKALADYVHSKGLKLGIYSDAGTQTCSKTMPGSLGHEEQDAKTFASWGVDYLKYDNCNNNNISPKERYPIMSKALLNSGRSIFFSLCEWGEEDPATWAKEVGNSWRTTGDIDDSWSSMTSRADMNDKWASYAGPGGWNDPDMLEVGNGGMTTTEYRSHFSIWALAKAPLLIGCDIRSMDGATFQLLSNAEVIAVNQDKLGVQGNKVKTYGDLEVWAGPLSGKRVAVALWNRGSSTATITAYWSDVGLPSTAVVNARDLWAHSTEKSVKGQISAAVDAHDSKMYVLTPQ
Chain of Beta-glucuronidase (Escherichia coli (strain K12)) (P05804 whole entry, looked up): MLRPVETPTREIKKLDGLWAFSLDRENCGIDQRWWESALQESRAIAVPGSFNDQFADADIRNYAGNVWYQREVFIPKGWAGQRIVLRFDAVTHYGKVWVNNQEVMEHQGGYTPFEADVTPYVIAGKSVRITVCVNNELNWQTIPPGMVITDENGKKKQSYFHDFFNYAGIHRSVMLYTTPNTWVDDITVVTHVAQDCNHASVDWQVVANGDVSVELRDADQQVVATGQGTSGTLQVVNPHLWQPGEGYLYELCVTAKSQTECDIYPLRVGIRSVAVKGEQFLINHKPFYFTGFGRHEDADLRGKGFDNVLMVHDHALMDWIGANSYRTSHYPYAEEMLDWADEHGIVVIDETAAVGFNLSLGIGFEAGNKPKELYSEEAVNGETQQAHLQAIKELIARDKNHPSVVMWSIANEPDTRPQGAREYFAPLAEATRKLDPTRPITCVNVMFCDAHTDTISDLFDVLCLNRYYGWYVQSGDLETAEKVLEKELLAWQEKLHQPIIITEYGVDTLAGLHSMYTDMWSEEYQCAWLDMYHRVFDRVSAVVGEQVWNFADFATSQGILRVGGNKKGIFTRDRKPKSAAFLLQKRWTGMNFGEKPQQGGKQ
Chain of Beta-glucuronidase (P05804 whole entry): as the sequence (P05804 whole entry, looked up) above
Chain of Alpha-galactosidase (Q42656 whole entry): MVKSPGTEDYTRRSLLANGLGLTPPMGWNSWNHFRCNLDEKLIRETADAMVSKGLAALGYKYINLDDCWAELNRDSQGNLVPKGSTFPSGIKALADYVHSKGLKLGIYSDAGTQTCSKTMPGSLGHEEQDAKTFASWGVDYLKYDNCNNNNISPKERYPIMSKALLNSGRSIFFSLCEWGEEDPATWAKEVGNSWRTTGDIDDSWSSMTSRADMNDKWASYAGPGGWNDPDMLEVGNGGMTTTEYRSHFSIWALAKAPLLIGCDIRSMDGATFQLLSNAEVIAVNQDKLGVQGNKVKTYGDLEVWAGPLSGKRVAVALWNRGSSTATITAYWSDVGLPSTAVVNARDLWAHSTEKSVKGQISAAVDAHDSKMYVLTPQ

Row | SMILES | IC50 [2] | IC50 [3] | inhibition (Aspergillus niger) | inhibition (Helix pomatia) | IC50 [5] | IC50 [7] | inhibition (Rattus norvegicus) | IC50 [8] | inhibition (Penicillium decumbens) | inhibition [9] | IC50 [11] | IC50 (Alpha-galactosidase) | inhibition (Sus scrofa) | inhibition [12] | IC50 [13] | inhibition [14] | inhibition [15] | IC50 [16] | inhibition (Prunus dulcis) | IC50 (Beta-glucuronidase) | further results
1 | CCCCCCCCCCCC[C@@]1(CO)NC[C@H](O)[C@@H](O)[C@@H]1O.Cl | Not Active | Not Active | 0% | 0.5% | 660 µM | Not Active | 2.3% | Not Active | 1.2% | 3.3% | Not Active | Not Active | 0% | 0% | Not Active | 13.9% | 0% | Not Active | 7.6% | Not Active | IC50 ([1]; read-out: IC50): 17 µM; IC50 [4]: Not Active; inhibition (Oryza sativa): 33.6%; IC50 ([6]; read-out: IC50): 47 µM; IC50 [10]: Not Active; IC50 [17]: Not Active
2 | C#Cc1ccc(C(=O)OCCCCCCN2C[C@H](O)[C@@H](O)[C@H](O)[C@H]2CO)cc1 | – | – | – | – | – | – | – | – | – | – | – | – | – | – | – | – | – | – | – | – | IC50 [18]: 2.2 µM
3 | CCCCCC[C@@]1(CO)NC[C@H](O)[C@@H](O)[C@@H]1O.Cl | Not Active | Not Active | 13.2% | 2.8% | 272 µM | Not Active | 11.6% | Not Active | 1.5% | 6.7% | Not Active | Not Active | 3.4% | 0.9% | Not Active | 17.2% | 8% | Not Active | 2.5% | Not Active | IC50 [1]: Not Active; inhibition (Bos taurus [19]): 24.8%; inhibition (Bos taurus [20]): 15.7%; IC50 [4]: Not Active; IC50 [6]: Not Active; IC50 ([10]; read-out: IC50): 257 µM; IC50 [17]: Not Active
4 | CCCCC[C@@]1(CO)NC[C@H](O)[C@@H](O)[C@@H]1O.Cl | Not Active | Not Active | 0% | 4% | 156 µM | Not Active | 15.1% | Not Active | 0% | 1.2% | Not Active | Not Active | 5.3% | 0% | Not Active | 3.9% | 1.7% | Not Active | 4.4% | Not Active | IC50 [1]: Not Active; inhibition (Bos taurus [19]): 18.7%; inhibition (Bos taurus [20]): 9.2%; IC50 [4]: Not Active; IC50 [6]: Not Active; IC50 ([10]; read-out: IC50): 48 µM; IC50 [17]: Not Active
5 | CCC[C@@]1(CO)NC[C@H](O)[C@@H](O)[C@@H]1O.Cl | Not Active | Not Active | 2.3% | 4.9% | 134 µM | Not Active | 0% | Not Active | 2.7% | 13.8% | Not Active | Not Active | 2.7% | 30.4% | Not Active | 42.1% | 9.6% | Not Active | 19.5% | Not Active | IC50 [1]: Not Active; inhibition (Bos taurus [19]): 15.4%; inhibition (Bos taurus [20]): 9.1%; IC50 ([4]; read-out: IC50): 94 µM; IC50 [6]: Not Active; IC50 ([10]; read-out: IC50): 82 µM; IC50 [17]: Not Active
6 | CCCCCCCCCCC[C@@]1(CO)NC[C@H](O)[C@@H](O)[C@@H]1O.Cl | Not Active | Not Active | 0% | 0% | 765 µM | Not Active | 4.6% | Not Active | 4.8% | 3.3% | Not Active | Not Active | 0% | 1.1% | Not Active | 5.3% | 1.6% | Not Active | 5.2% | Not Active | IC50 ([1]; read-out: IC50): 100 µM; inhibition (Bos taurus [20]): 29.8%; IC50 [4]: Not Active; inhibition (Oryza sativa): 17.6%; IC50 [6]: Not Active; IC50 [10]: Not Active; IC50 [17]: Not Active
